Like-named read-outs stand apart in the source and are kept apart here.
Legend:
[1] = accelerated stability test of the crystal form (XRD comparison); assay type: physicochemical; conditions: 40° C., relative humidity of 75%, 6 months, XRD compared with 0 month
Method: The sample of Example 1 was subjected to an accelerated stability test (40° C., relative humidity of 75%) for 6 months and then sent to XRD for testing, and compared with the original data to confirm whether the crystal form changed.
Among them, the XRPD pattern of crystal form A of the compound of formula I after 6 months of the accelerated stability test (40° C., relative humidity of 75%) is shown in FIG. 3. The comparative XRPD pattern of crystal form A of the compound of formula I after accelerated stability test is shown in FIG. 4.

[2] = target: PARP enzyme (Homo sapiens, UniProt P09874); conditions: in vitro; cited from earlier work
Chain of PARP enzyme (P09874 whole entry): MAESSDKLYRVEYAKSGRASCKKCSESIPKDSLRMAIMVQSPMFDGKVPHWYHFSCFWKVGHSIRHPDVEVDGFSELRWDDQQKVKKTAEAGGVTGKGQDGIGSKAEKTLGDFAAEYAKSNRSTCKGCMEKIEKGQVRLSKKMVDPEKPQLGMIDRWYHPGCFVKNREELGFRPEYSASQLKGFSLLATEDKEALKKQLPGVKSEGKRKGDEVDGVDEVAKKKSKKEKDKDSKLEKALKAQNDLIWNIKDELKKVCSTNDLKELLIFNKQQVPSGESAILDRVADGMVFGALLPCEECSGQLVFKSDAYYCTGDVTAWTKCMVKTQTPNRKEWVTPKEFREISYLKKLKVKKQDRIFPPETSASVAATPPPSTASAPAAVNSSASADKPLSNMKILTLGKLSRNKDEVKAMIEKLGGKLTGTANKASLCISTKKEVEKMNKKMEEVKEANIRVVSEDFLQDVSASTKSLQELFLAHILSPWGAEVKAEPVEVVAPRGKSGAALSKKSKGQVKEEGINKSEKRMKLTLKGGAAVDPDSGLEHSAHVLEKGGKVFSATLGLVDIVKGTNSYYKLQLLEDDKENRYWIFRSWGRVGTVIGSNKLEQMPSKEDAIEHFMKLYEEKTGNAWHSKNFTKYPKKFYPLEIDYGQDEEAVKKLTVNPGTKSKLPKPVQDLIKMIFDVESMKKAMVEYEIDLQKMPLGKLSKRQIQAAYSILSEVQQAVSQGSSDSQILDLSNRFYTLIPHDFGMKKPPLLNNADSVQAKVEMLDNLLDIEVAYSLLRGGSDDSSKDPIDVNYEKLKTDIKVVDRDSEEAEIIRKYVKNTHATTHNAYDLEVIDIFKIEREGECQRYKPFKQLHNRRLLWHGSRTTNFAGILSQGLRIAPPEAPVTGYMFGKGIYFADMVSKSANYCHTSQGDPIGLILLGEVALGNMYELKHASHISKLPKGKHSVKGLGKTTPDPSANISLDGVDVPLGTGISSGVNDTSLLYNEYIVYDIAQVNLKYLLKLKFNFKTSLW

[3] = tested on: transplanted tumor; conditions: nude-mouse transplanted tumor model; cited from earlier work
[4] = rat, in vivo; cited from earlier work
[5] = dog, in vivo; cited from earlier work

Compound	crystal form change after accelerated stability test [1]	inhibition of the activity of PARP enzyme [2]	inhibition of tumor growth [3]	safety (toxicological data) [4]	safety (toxicological data) [5]
O=C(c1cc(Cc2n[nH]c(=O)c3ccccc23)ccc1F)N1CCn2nc(C(F)(F)F)nc2C1 [Example 1]	did not change				
O=C(c1cc(Cc2n[nH]c(=O)c3ccccc23)ccc1F)N1CCn2nc(C(F)(F)F)nc2C1 [formula I]		inhibit the activity of PARP enzyme significantly	inhibit tumor growth significantly	has a corresponding safety	has a corresponding safety

— US11180505B2, “Crystal form of PARP-1 inhibitor and preparation method therefor” (Jiangsu Hengrui Medicine Co., Ltd., priority 2017, dated 2021)
